US20220008359A1, “COMBINATION ANTI-CANCER PRODUCTS AND METHODS” (priority 2020, published 2022)
Marks after values point to notes of the source that are not given here.

System: ZR75-1 cells
Test: Immuno-staining of protein expression and protein phosphorylation, ZR75-1 cells
Assay type: cell-based
Set-up: ATM level / P-317 (ULK1) level / Beclin1 level / ATG5 level / HDAC8 level / BIM level: scale not given here
Description: ZR75-1 and MCF7 cells were treated with vehicle control, GZ17-6.02, Palbociclib or the drugs combined for 3 hours and for 6 hours. Cells were fixed in place and immuno-staining performed with in house validated antibodies to detect protein expression and protein phosphorylation.

CC(=O)c1c(C)c2cnc(Nc3ccc(N4CCNCC4)cn3)nc2n(C2CCCC2)c1=O [PALBO, Palbociclib]
AKT level (ZR75, 3 h): 100
AMPKa level (ZR75, 3 h): 100
ATG5 level (ZR75, 3 h): 107
ATG13 level (ZR75, 3 h): 101
ATM level (ZR75, 3 h): 99
BAK level (ZR75, 3 h): 107
BAX level (ZR75, 3 h): 106
BCL-XL level (ZR75, 3 h): 94
BIM level (ZR75, 3 h): 109
Beclin1 level (ZR75, 3 h): 112
CD95 level (ZR75, 3 h): 100
CHOP level (ZR75, 3 h): 107
Cyclin D level (ZR75, 3 h): 108
Cyclin E level (ZR75, 3 h): 103
ER level (ZR75, 3 h): 100
ERBB1 level (ZR75, 3 h): 99
ERBB2 level (ZR75, 3 h): 99
ERBB3 level (ZR75, 3 h): 100
ERK1/2 level (ZR75, 3 h): 100
ERK2 level (ZR75, 3 h): 100
ERRB4 level (ZR75, 3 h): 100
FAS-L level (ZR75, 3 h): 108
GRP78 level (ZR75, 3 h): 108
HDAC1 level (ZR75, 3 h): 101
HDAC2 level (ZR75, 3 h): 99
HDAC3 level (ZR75, 3 h): 96
HDAC4 level (ZR75, 3 h): 100
HDAC5 level (ZR75, 3 h): 98
HDAC6 level (ZR75, 3 h): 99
HDAC7 level (ZR75, 3 h): 101
HDAC8 level (ZR75, 3 h): 100
HDAC9 level (ZR75, 3 h): 101
HDAC10 level (ZR75, 3 h): 98
HDAC11 level (ZR75, 3 h): 96
IDO1 level (ZR75, 3 h): 96
JAK2 level (ZR75, 3 h): 100
JNK1/2 level (ZR75, 3 h): 100
LATS1/2 level (ZR75, 3 h): 98
MCL1 level (ZR75, 3 h): 96
MHCA level (ZR75, 3 h): 102
NEDD4 level (ZR75, 3 h): 100
NFkB level (ZR75, 3 h): 100
ODC level (ZR75, 3 h): 100
P-89 (TAZ) level (ZR75, 3 h): 101
P-109 (YAP) level (ZR75, 3 h): 101
P-127 (YAP) level (ZR75, 3 h): 100
P-317 (ULK1) level (ZR75, 3 h): 112
P-397 (YAP) level (ZR75, 3 h): 98
P-757 (ULK1) level (ZR75, 3 h): 96
P-909 (LATS1/2) level (ZR75, 3 h): 98
P-1079 (LATS1/2) level (ZR75, 3 h): 101
P-AMPKa level (ZR75, 3 h): 115#
P-ATG13 level (ZR75, 3 h): 113#
P-ATM level (ZR75, 3 h): 106
P-ERBB1 level (ZR75, 3 h): 101
P-ERBB2 level (ZR75, 3 h): 96
P-ERBB3 level (ZR75, 3 h): 115#
P-ERBB4 level (ZR75, 3 h): 107
P-ERK level (ZR75, 3 h): 97
P-JAK2 level (ZR75, 3 h): 100
P-JNK level (ZR75, 3 h): 90
P-KIT level (ZR75, 3 h): 100
P-MET level (ZR75, 3 h): 101
P-NFkB level (ZR75, 3 h): 100
P-PDGFRb level (ZR75, 3 h): 100
P-PERK level (ZR75, 3 h): 111
P-S2448 (mTOR) level (ZR75, 3 h): 97
P-S2481 (mTOR) level (ZR75, 3 h): 96
P-T308 (AKT) level (ZR75, 3 h): 106
P-Y694 (STAT5) level (ZR75, 3 h): 100
P-Y705 (STAT3) level (ZR75, 3 h): 99
P-eIF2a level (ZR75, 3 h): 110
P-p38 level (ZR75, 3 h): 101
P-p70 T389 level (ZR75, 3 h): 100
PD-L1 level (ZR75, 3 h): 100
PD-L2 level (ZR75, 3 h): 100
PDGFRb level (ZR75, 3 h): 100
PERK level (ZR75, 3 h): 101
PP1 level (ZR75, 3 h): 99
PTEN level (ZR75, 3 h): 101
STAT3 level (ZR75, 3 h): 100
STAT5 level (ZR75, 3 h): 100
TAZ level (ZR75, 3 h): 100
ULK1 level (ZR75, 3 h): 100
Y416 (c-SRC) level (ZR75, 3 h): 101
Y527 (c-SRC) level (ZR75, 3 h): 99
YAP level (ZR75, 3 h): 98
c-KIT level (ZR75, 3 h): 100
c-MET level (ZR75, 3 h): 100
c-SRC level (ZR75, 3 h): 101
eIF2a level (ZR75, 3 h): 99
mTOR level (ZR75, 3 h): 101
p38 level (ZR75, 3 h): 100
p70 S6K level (ZR75, 3 h): 100
P-ERBB3 level (ZR75, 3 h, listed as Palbo): 115
AKT level (ZR75, 6 h): 101
AMPKa level (ZR75, 6 h): 100
ATG5 level (ZR75, 6 h): 114#
ATG13 level (ZR75, 6 h): 100
ATM level (ZR75, 6 h): 100
BAK level (ZR75, 6 h): 109
BAX level (ZR75, 6 h): 108
BCL-XL level (ZR75, 6 h): 91
BIM level (ZR75, 6 h): 113#
Beclin1 level (ZR75, 6 h): 118#
CD95 level (ZR75, 6 h): 101
CHOP level (ZR75, 6 h): 109
Cyclin D level (ZR75, 6 h): 107
Cyclin E level (ZR75, 6 h): 105
ER level (ZR75, 6 h): 99
ERBB1 level (ZR75, 6 h): 100
ERBB2 level (ZR75, 6 h): 100
ERBB3 level (ZR75, 6 h): 99
ERK1/2 level (ZR75, 6 h): 100
ERK2 level (ZR75, 6 h): 99
ERRB4 level (ZR75, 6 h): 99
FAS-L level (ZR75, 6 h): 109
GRP78 level (ZR75, 6 h): 112
HDAC1 level (ZR75, 6 h): 102
HDAC2 level (ZR75, 6 h): 95
HDAC3 level (ZR75, 6 h): 97
HDAC4 level (ZR75, 6 h): 100
HDAC5 level (ZR75, 6 h): 101
HDAC6 level (ZR75, 6 h): 98
HDAC7 level (ZR75, 6 h): 102
HDAC8 level (ZR75, 6 h): 99
HDAC9 level (ZR75, 6 h): 101
HDAC10 level (ZR75, 6 h): 100
HDAC11 level (ZR75, 6 h): 100
IDO1 level (ZR75, 6 h): 100
JAK2 level (ZR75, 6 h): 100
JNK1/2 level (ZR75, 6 h): 100
LATS1/2 level (ZR75, 6 h): 99
MCL1 level (ZR75, 6 h): 91
MHCA level (ZR75, 6 h): 103
NEDD4 level (ZR75, 6 h): 97
NFkB level (ZR75, 6 h): 101
ODC level (ZR75, 6 h): 98
P-89 (TAZ) level (ZR75, 6 h): 101
P-109 (YAP) level (ZR75, 6 h): 105
P-127 (YAP) level (ZR75, 6 h): 106
P-317 (ULK1) level (ZR75, 6 h): 114#
P-397 (YAP) level (ZR75, 6 h): 99
P-757 (ULK1) level (ZR75, 6 h): 97
P-909 (LATS1/2) level (ZR75, 6 h): 109
P-1079 (LATS1/2) level (ZR75, 6 h): 102
P-AMPKa level (ZR75, 6 h): 117#
P-ATG13 level (ZR75, 6 h): 121#
P-ATM level (ZR75, 6 h): 109
P-ERBB1 level (ZR75, 6 h): 100
P-ERBB2 level (ZR75, 6 h): 98
P-ERBB3 level (ZR75, 6 h): 116#
P-ERBB4 level (ZR75, 6 h): 101
P-ERK level (ZR75, 6 h): 99
P-JAK2 level (ZR75, 6 h): 99
P-JNK level (ZR75, 6 h): 88
P-KIT level (ZR75, 6 h): 100
P-MET level (ZR75, 6 h): 99
P-NFkB level (ZR75, 6 h): 98
P-PDGFRb level (ZR75, 6 h): 98
P-PERK level (ZR75, 6 h): 111
P-S2448 (mTOR) level (ZR75, 6 h): 98
P-S2481 (mTOR) level (ZR75, 6 h): 98
P-T308 (AKT) level (ZR75, 6 h): 106
P-Y694 (STAT5) level (ZR75, 6 h): 99
P-Y705 (STAT3) level (ZR75, 6 h): 99
P-eIF2a level (ZR75, 6 h): 109
P-p38 level (ZR75, 6 h): 100
P-p70 T389 level (ZR75, 6 h): 101
PD-L1 level (ZR75, 6 h): 99
PD-L2 level (ZR75, 6 h): 104
PDGFRb level (ZR75, 6 h): 100
PERK level (ZR75, 6 h): 99
PP1 level (ZR75, 6 h): 99
PTEN level (ZR75, 6 h): 101
STAT3 level (ZR75, 6 h): 99
STAT5 level (ZR75, 6 h): 99
TAZ level (ZR75, 6 h): 102
ULK1 level (ZR75, 6 h): 100
Y416 (c-SRC) level (ZR75, 6 h): 102
Y527 (c-SRC) level (ZR75, 6 h): 98
YAP level (ZR75, 6 h): 99
c-KIT level (ZR75, 6 h): 100
c-MET level (ZR75, 6 h): 101
c-SRC level (ZR75, 6 h): 101
eIF2a level (ZR75, 6 h): 100
mTOR level (ZR75, 6 h): 100
p38 level (ZR75, 6 h): 99
p70 S6K level (ZR75, 6 h): 99
P-ERBB3 level (ZR75, 6 h, listed as Palbo): 116
increase in the levels of cyclin D and cyclin E (ZR75 and MCF7, 3 h and 6 h, trend): 5-10%
